The values that follow come from patent publication US20200317741A1, “COMPOSITION FOR PREVENTING HAIR LOSS OR PROMOTING HAIR GROWTH” (BR PHARM CO., LTD., priority 2019, published 2020).

What all share (format): cell-based
Experiment [1] concerns dermal papilla cells. Description: Dermal papilla cell growth by Wnt-derived peptides (microscopy). The note with it: 100 ng/mL among 10-10000 ng/mL, 72 hours (FIG. 3C). The procedure:
(§1) To confirm the shape change and proliferation rate of cells, keratinocytes T0020001 (AddexBio), fibroblasts (ATCC), and dermal papilla cells were cultured in DMEM medium containing 10% fetal bovine serum and 1% penicillin/streptomycin.
(§2) After the cells were recovered by treating the cultured cells with trypsin/EDTA and the number of cells was measured using a hematocytometer. The cells were seeded in 96 well plates at 3×10^3 cells/200 μL/well and stabilized for at least 4 hours.
(§3) Thereafter, the medium was removed, diluted with DEME medium so as to be the Wnt peptides (Wnt-1, Wnt-2) of 10, 100, 1000, and 10000 ng/mL and then treated with cells and cultured for 72 hours in an incubator at 37° C., 5% CO2. The cells were then observed by a microscope to analyze the morphology and growth rate of the cells.

A further experiment relates to β-catenin. Nature of the experiment: Expression analysis of β-catenin in dermal papilla cells (western blot). The note with it: FIG. 6 legend. How it is done: (§4) As in Example 1, the dermal papilla cells were stabilized for at least 4 hours after seeding in 6 well plates at 4×10^4 cells/well. Thereafter, the medium was removed, and the cell was treated with PDRN, Wnt-1 peptide and Wnt-2 peptide at various concentrations alone or in combination and incubated for 72 hours in an incubator at 37° C., 5% CO2.
(§5) Then, the cells were lysed by adding lysis buffer (1 M Tris-HCl, 0.5 M EDTA, 1% Triton X-100, 100 mM PMSF) to each cell, and the protein was quantified using a BCA (Bicinconinic acid) kit. 20 μg of protein was loaded on 10% SDS-polyacrylamide and electrophoresed at 125 V. The protein separated by electrophoresis was transferred to PVDF membrane (Immobilon-P transfermembrane) by electrophoresis at 50 mA for 120 minutes using transfer buffer (20% methanol, 25 mM Tris-HCl, 192 mM glycine).
(§6) To prevent nonspecific binding, the membranes were blocked with 5% non-fat skim milk and then the reaction was carried out at 4° C. for 12 hours with a primary antibody (β-catenin, c-myc, Santa Cruz Biotechnology, Inc.) diluted to 1:1000 in TTBS solution ([…], pH 7.4; 20 mM NaCl; 0.05% Tween-20). Thereafter, the membrane was washed three times with TTBS and reacted with a secondary antibody (HRP-conjugated anti-rabbit IgG) diluted to 1:2000 at room temperature for 2 hours. The membrane was then washed three times with TTBS and then protein expression was confirmed on the X-ray film using an ECL diagnostic kit.

The test system of a further experiment is keratinocytes. Nature of the experiment: Keratinocyte growth by Wnt-derived peptides (microscopy). The settings on record: 72 hours (FIG. 3A). How it is done: as §1, §2, §3
The subject of a further experiment is c-myc. Description: Expression analysis of c-myc in dermal papilla cells (western blot). The note with it: for activity of c-myc: FIG. 7 legend. How it is done:
as §4, §5, §6

The next experiment concerns fibroblasts. Nature of the experiment: Fibroblast growth by Wnt-derived peptides (microscopy). The settings on record: 10-10000 ng/mL, 72 hours, compared to the control group (FIG. 3B). How it is done: as §1, §2, §3
For experiment [2], the system named is dermal papilla cells. Description: Dermal papilla cell growth rate by cell counting (PDRN alone or with Wnt-1+Wnt-2). The note with it: PDRN 50, 100, 200 μg/mL, 72 hours, relative to control without PDRN (FIG. 2). The procedure: Dermal papilla cells (Promocells) were cultured in an incubator at 37° C., 5% CO2 using DMEM medium (Dulbeco's Modified Eagle's Medium) containing 10% fetal bovine serum (FBS) and 1% penicillin/streptomycin.
Cells were recovered by treating the cultured cells with trypsin/EDTA, and then the number of cells was measured using a hemacytometer. The cells were seeded in 96 well plates at 3×10^3 cells/200 μL/well and then stabilized for at least 4 hours. Thereafter, the medium was removed, diluted in DEME medium so as to be the polydeoxyribonucleotide (PDRN) of 50, 100, 200 μg/mL concentration and then treated with cells and cultured for 72 hours in an incubator at 37° C., 5% CO2.
Subsequently, the cells were recovered by treating them with trypsin/EDTA and then the number of cells was measured using a hematocytometer. Cell growth rate was analyzed by calculating percentages based on the control group without the treatment with PDRN.
As in Example 1, the dermal papilla cells were seeded in 96 well plates at 3×10^3 cells/200 μL/well and stabilized for at least 4 hours. Thereafter, the medium was removed, diluted with DEME medium so as to be polydeoxyribonucleotide (PDRN, BR Pharm Co. Ltd.) of 25, 50, 100 μg/mL and Wnt-1 peptide+Wnt-2 peptide of 0.1 μg/mL (each 0.05 μg/mL) and then treated with cells and cultured for 72 hours in an incubator at 37° C., 5% CO2.

Ends that are not written are not given here.

Regarding “MCCGRGYDQF (Ac-MCCGRGYDQF; cysteine pairing not given here) [Wnt-1]”, the “cell growth rate (dermal papilla cells) at 100 ng/mL” value with dermal papilla cells [1] was “highest cell growth rate”. The “activity of β-catenin” value with β-catenin is listed as “effect of increasing the activity of β-catenin”. The “growth rate of the cells (keratinocytes)” value with keratinocytes (10, 100, 1000, 10000 ng/mL) was “growth rate of the cells was increased”. Besides, in the experiment on c-myc, the activity of c-myc entry is given as “effect of increasing the activity of c-myc”.

Regarding “MCCGRGYNYH (Ac-MCCGRGYNYH; cysteine pairing not given here) [Wnt-2]”, the “cell growth rate (dermal papilla cells) at 100 ng/mL” value in the experiment with dermal papilla cells [1] is “highest cell growth rate”. Moreover, in the experiment with β-catenin, the “activity of β-catenin” value was “effect of increasing the activity of β-catenin”. For the same substance, the “cell growth rate (keratinocytes) at 100 ng/mL” value with keratinocytes (100 ng/mL among 10-10000 ng/mL) was “highest cell growth rate”. Further, the activity of c-myc entry in the experiment with c-myc was “effect of increasing the activity of c-myc”. The “cell growth (fibroblasts) compared to the control group” value with fibroblasts was “no change was observed”.

For polydeoxyribonucleotide [PDRN], in the experiment with β-catenin, the “activity of β-catenin” value is recorded as “effect of increasing the activity of β-catenin”. Besides, the “growth rate of the dermal papilla cells” value with dermal papilla cells [2] is listed as “increases as the PDRN treatment concentration increases”. The “expression of c-myc with PDRN treatment concentration” value in the experiment on c-myc (72 hours (FIG. 7)) is “increased as the treatment concentration of PDRN increased”.
